Values of other authors, collected in US20100209363A1, “PERSONAL CLEANSING COMPOSITION INCLUDING A STRUCTURED SURFACTANT SYSTEM AND A SUN PROTECTION FACTOR COMPOSITION” (The Dial Corporation, priority 2009, published 2010).

Conditions: in capric triglyceride

Row | SMILES | concentration up to which miscible with capric triglyceride | miscibility with capric triglyceride
1 | COc1ccc(C(=O)CC(=O)c2ccc(C(C)(C)C)cc2)cc1 [avobenzone, 4-tert-butyl-4′-methoxydibenzoylmethane] | up to 16 wt. % | miscible
2 | CCCCC(CC)COC(=O)C(C#N)=C(c1ccccc1)c1ccccc1 (stereo not drawn) [octocrylene, 2-ethylhexyl 2-cyano-3,3-diphenylacrylate] | – | miscible
